One series relates to HEp-2. Put plainly: Cytotoxicity against human Hep2 cells assessed as reduction in cell viability after 72 hrs by MTT assay. Format: functional, cell-based. The conditions noted are these: HEp-2, 72 h. (In general: Tetrazolium dyes change colour on reduction, which living cells bring about.)
Another series concerns HCT-116. Nature of the series: Cytotoxicity against human HCT116 cells assessed as reduction in cell viability after 72 hrs by MTT assay. As to conditions: HCT-116, 72 h. Format: functional, cell-based.
Series [1] in a line: Cytotoxicity against human MS cells assessed as reduction in cell viability after 72 hrs by MTT assay. Type of series: functional, cell-based.
In a further series the test system is RD. Put plainly: Cytotoxicity against human RD cells assessed as reduction in cell viability after 72 hrs by MTT assay. Type of series: functional, cell-based.
The subject of another series is A549. Put plainly: Cytotoxicity against human A549 cells assessed as reduction in cell viability after 72 hrs by MTT assay. Type of series: functional, cell-based. As to conditions: A549, 72 h.
The test system of another series is MCF7. Nature of the series: Cytotoxicity against human MCF7 cells assessed as reduction in cell viability after 72 hrs by MTT assay. Type of series: functional, cell-based. The conditions noted are these: MCF7, 72 h.
In the next series the test system is HEK293. Put plainly: Cytotoxicity against HEK293 cells assessed as reduction in cell viability after 72 hrs by MTT assay. As to conditions: Homo sapiens, HEK293, 72 h. Type of series: cell-based.
A short description of series [2]: Selectivity index, ratio of IC50 for HEK293 cells to IC50 for human Hep2 cells. Type of series: toxicity. As to conditions: HEK293 cells versus Hep2 cells, read-out: Ratio IC50.
Series [3] in a line: Selectivity index, ratio of IC50 for HEK293 cells to IC50 for human MS cells. As to conditions: HEK293 cells versus MS cells, read-out: Ratio IC50. Type of series: toxicity.
Series [4] can be described thus: Selectivity index, ratio of IC50 for HEK293 cells to IC50 for human MCF7 cells. Format: toxicity. The conditions noted are these: HEK293 cells versus MCF7 cells, read-out: Ratio IC50.

SMILES strings stand for the structures.

On to `CC1(C)CC[C@]23CC[C@]4(C)[C@H](CC[C@@H]5[C@@](C)(CC#N)[C@H](C(C)(C)C(=O)COC(=O)CCCCCCCCC(=O)O)CC[C@]54C)[C@H]2[C@H]1OC3`, for which the half-inhibitory concentration (IC50) (in the series with HEp-2; in the series with HCT-116; in [1]; with RD; in the series on A549; in the series on MCF7) was above 100 µM in each case.
With `CC(C)(CC(=O)OCC(=O)C(C)(C)[C@@H]1CC[C@]2(C)[C@H](CC[C@@H]3[C@H]4[C@H]5OC[C@@]4(CCC5(C)C)CC[C@]32C)[C@@]1(C)CC#N)C(=O)O`, the IC50 (in the series with HEp-2; in the series on HCT-116; in series [1]; with RD; with A549; with MCF7) was above 100 µM in each case.
With `CC1(C)CC[C@]23CC[C@]4(C)[C@H](CC[C@@H]5[C@@](C)(CC#N)[C@H](C(C)(C)C(O)CO)CC[C@]54C)[C@H]2[C@H]1OC3` (some centres not stated), the IC50 (usually the concentration needed to halve the response being measured) with HEp-2 is above 100 µM; with HCT-116 it was 81.9 µM; in series [1], 38 µM; with RD, above 100 µM; in the series with A549, above 100 µM; with MCF7, 59.8 µM.
For the molecule `C=C(C=O)[C@@H]1CC[C@]2(C(=O)OC)CC[C@]3(C)[C@H](CC[C@@H]4[C@@](C)(CC#N)[C@H](C(C)(C)C(=O)COC(=O)c5cccnc5)CC[C@]43C)[C@@H]12`, the IC50 in the series with HEp-2 is 29.5 µM; in the series on HCT-116, 7.03 µM; in [1] it was 8.27 µM; in the series on RD, 8.98 µM; with A549, 40.3 µM; in the series with MCF7, 35 µM. Further, in the series with HEK293, the half-inhibitory concentration (IC50) is 59.4 µM. Further, the selectivity ratio in series [2], in series [3] and in series [4] was 1.47 to 8.45 each time.
`C=C(C=O)[C@@H]1CC[C@]2(C(=O)OC)CC[C@]3(C)[C@H](CC[C@@H]4[C@@](C)(CC#N)[C@H](C(C)(C)C(=O)COC=O)CC[C@]43C)[C@@H]12`: the IC50 with HEp-2 was 78.9 µM; in the series with HCT-116 it was 79.8 µM; in series [1], 49.1 µM; with RD, 49.4 µM; in the series with A549, above 100 µM; in the series with MCF7, 30 µM.
`CC1(C)CC[C@]23CC[C@]4(C)[C@H](CC[C@@H]5[C@@](C)(CC#N)[C@H](C(C)(C)C(=O)COC(=O)/C=C/c6ccccc6)CC[C@]54C)[C@H]2[C@H]1OC3`: the IC50 was above 100 µM with HEp-2; 28.5 µM in the series with HCT-116; above 100 µM in series [1]; 44.3 µM in the series with RD; above 100 µM in the series with A549; above 100 µM in the series on MCF7.
As to `C=C(CO)[C@@H]1CC[C@]2(C(=O)OC)CC[C@]3(C)[C@H](CC[C@@H]4[C@@](C)(CC#N)[C@H](C(C)(C)C(O)CO)CC[C@]43C)[C@@H]12` (some centres not stated), the IC50 with HEp-2 was above 100 µM; with HCT-116, above 100 µM; in series [1], above 100 µM; with RD, 72.4 µM; with A549 it was above 100 µM; in the series with MCF7, above 100 µM.
In the case of `CC1(C)CC[C@]23CC[C@]4(C)[C@H](CC[C@@H]5[C@]6(C)[C@@H](CC[C@]54C)C(C)(C)[C@@](O)(CO)[C@H]6C#N)[C@H]2[C@H]1OC3`, the IC50 (in the series on HEp-2; with HCT-116; in series [1]; in the series with RD; in the series on A549; in the series on MCF7) was above 100 µM each time.
Take `C=C(CO)[C@@H]1CC[C@]2(C(=O)OC)CC[C@]3(C)[C@H](CC[C@@H]4[C@@](C)(CC#N)[C@H](C(C)(C)C(=O)COC(C)=O)CC[C@]43C)[C@@H]12`: the IC50 with HEp-2 was 81.2 µM; in the series on HCT-116, 43.7 µM; in series [1] it was 24 µM; in the series with RD, 33.4 µM; with A549 it was 50.7 µM; with MCF7 it was 10.3 µM.
Consider `CC1(C)CC[C@]23CC[C@]4(C)[C@H](CC[C@@H]5[C@@](C)(CC#N)[C@H](C(C)(C)C(=O)CO)CC[C@]54C)[C@H]2[C@H]1OC3`, for which the IC50 (in the series with HEp-2; with HCT-116; in series [1]; in the series on RD; in the series with A549; in the series on MCF7) was above 100 µM in each case.
For the molecule `CC(=O)OCC(=O)C(C)(C)[C@@H]1CC[C@]2(C)[C@H](CC[C@@H]3[C@H]4[C@H]5OC[C@@]4(CCC5(C)C)CC[C@]32C)[C@@]1(C)CC#N`, the IC50 (with HEp-2; with HCT-116; in series [1]; with RD; with A549; with MCF7) was above 100 µM in each case.
`CC1(C)CC[C@]23CC[C@]4(C)[C@H](CC[C@@H]5[C@@](C)(CC#N)[C@H](C(C)(C)C(=O)[C@@H](Cl)Br)CC[C@]54C)[C@H]2[C@H]1OC3`: the concentration for half-maximal inhibition (IC50) is above 100 µM in the series on HEp-2; 13.2 µM with HCT-116; 24.7 µM in series [1]; 11.3 µM in the series on RD; 35.2 µM in the series on A549; 10.8 µM in the series on MCF7.
Regarding `CC(=O)Oc1ccccc1C(=O)OCC(=O)C(C)(C)[C@@H]1CC[C@]2(C)[C@H](CC[C@@H]3[C@H]4[C@H]5OC[C@@]4(CCC5(C)C)CC[C@]32C)[C@@]1(C)CC#N`, the IC50 (in the series with HEp-2; in the series on HCT-116; in series [1]; in the series with RD; in the series with A549; in the series on MCF7) was above 100 µM each time.
`C=C(C=O)[C@@H]1CC[C@]2(C(=O)OC)CC[C@]3(C)[C@H](CC[C@@H]4[C@@](C)(CC#N)[C@H](C(C)(C)C(=O)COC(=O)/C=C/c5ccccc5)CC[C@]43C)[C@@H]12`: the IC50 is 84.8 µM in the series with HEp-2; 13.2 µM with HCT-116; 22 µM in series [1]; 3.65 µM in the series on RD; above 100 µM in the series with A549; 8.54 µM in the series on MCF7. The half-inhibitory concentration (IC50) in the series on HEK293 was determined as 184 µM. Further, the selectivity ratio in [2], in [3] and in series [4] was 1.84 to 50.3 in each case.
Regarding `C=C(C=O)[C@@H]1CC[C@]2(C(=O)OC)CC[C@]3(C)[C@H](CC[C@@H]4[C@@](C)(CC#N)[C@H](C(C)(C)C(=O)COC(=O)c5ccccc5OC(C)=O)CC[C@]43C)[C@@H]12`, the IC50 is 36.2 µM with HEp-2; 4.91 µM with HCT-116; 12.8 µM in series [1]; 4.81 µM in the series on RD; 22.8 µM in the series on A549; above 100 µM in the series with MCF7. Also, the concentration for half-maximal inhibition (IC50) in the series on HEK293 amounted to 108 µM. Also, the selectivity ratio in series [2], in series [3] and in [4] was 1.08 to 22.5 each time.
With `CC1(C)CC[C@]23CC[C@]4(C)[C@H](CC[C@@H]5[C@@](C)(CC#N)[C@H](C(C)(C)C(=O)COC(=O)c6cccnc6)CC[C@]54C)[C@H]2[C@H]1OC3`, the IC50 (in the series with HEp-2; in the series with HCT-116; in [1]; with RD; with A549; in the series with MCF7) was above 100 µM each time.
On to `CC1(C)CC[C@]23CC[C@]4(C)[C@H](CC[C@@H]5[C@@](C)(CC#N)[C@H](C(C)(C)C(=O)COC(=O)CC(=O)CC(=O)O)CC[C@]54C)[C@H]2[C@H]1OC3`, for which the IC50 in the series on HEp-2 was above 100 µM; in the series with HCT-116, above 100 µM; in series [1], 87.5 µM; with RD, 50.1 µM; in the series on A549, 69.5 µM; in the series with MCF7 it was above 100 µM.
As for `CC1(C)CC[C@]23CC[C@]4(C)[C@H](CC[C@@H]5[C@@](C)(CC#N)[C@H](C(C)(C)C(=O)COC(=O)CCC(=O)O)CC[C@]54C)[C@H]2[C@H]1OC3`, the IC50 (in the series with HEp-2; with HCT-116; in [1]; with RD; in the series with A549; in the series on MCF7) was above 100 µM throughout.
As to `CC1(C)CC[C@]23CC[C@]4(C)[C@H](CC[C@@H]5[C@@](C)(CC#N)[C@H](C(C)(C)C(=O)C(Cl)Cl)CC[C@]54C)[C@H]2[C@H]1OC3`, the IC50 with HEp-2 is above 100 µM; in the series on HCT-116, 13.2 µM; in series [1] it was 24.7 µM; in the series on RD it was 11.3 µM; in the series with A549, 35.2 µM; in the series with MCF7, 10.8 µM.
In the case of `CC1(C)CC[C@]23CC[C@]4(C)[C@H](CC[C@@H]5[C@@](C)(CC#N)[C@H](C(C)(C)C(=O)COC=O)CC[C@]54C)[C@H]2[C@H]1OC3`, the IC50 (with HEp-2; in the series on HCT-116; in series [1]; in the series with RD; in the series with A549; with MCF7) was above 100 µM throughout.
